In the supplement of paper PMC13380429:

Columns and labels:
Conditions in all cases: 72 h
Caco-2 [1] = assay: cell viability relative to DMSO; higher = less toxic
Calu-3 [2] = assay: as above
HepG2 [3] = assay: as above
U2OS [4] = assay: as above
Caco-2 [5] = assay: relative viability EC50 (midpoint between 100% and the lowest measured viability); higher = less toxic
Calu-3 [6] = assay: as above
HepG2 [7] = assay: as above
U2OS [8] = assay: as above
Caco-2 [9] = assay: drug sensitivity score (DSS) for viability; higher = more toxic; extreme values may be limits of the assay
Calu-3 [10] = assay: as above
HepG2 [11] = assay: as above
U2OS [12] = assay: as above
Vero E6 [13] = assay: cell viability relative to DMSO; higher = less toxic
Vero E6 [14] = assay: relative viability EC50 (midpoint between 100% and the lowest measured viability); higher = less toxic
Vero E6 [15] = assay: drug sensitivity score (DSS) for viability; higher = more toxic; extreme values may be limits of the assay

Structure (SMILES)	cell viability (Caco-2 [1]; 1 nM)	cell viability (Caco-2 [1]; 10 nM)	cell viability (Caco-2 [1]; 100 nM)	cell viability (Caco-2 [1]; 1000 nM)	cell viability (Caco-2 [1]; 10000 nM)	cell viability (Calu-3 [2]; 1 nM)	cell viability (Calu-3 [2]; 10 nM)	cell viability (Calu-3 [2]; 100 nM)	cell viability (Calu-3 [2]; 1000 nM)	cell viability (Calu-3 [2]; 10000 nM)	cell viability (HepG2 [3]; 1 nM)	cell viability (HepG2 [3]; 10 nM)	cell viability (HepG2 [3]; 100 nM)	cell viability (HepG2 [3]; 1000 nM)	cell viability (HepG2 [3]; 10000 nM)	cell viability (U2OS [4]; 1 nM)	cell viability (U2OS [4]; 10 nM)	cell viability (U2OS [4]; 100 nM)	cell viability (U2OS [4]; 1000 nM)	cell viability (U2OS [4]; 10000 nM)	relative viability EC50 (Caco-2 [5])	relative viability EC50 (Calu-3 [6])	relative viability EC50 (HepG2 [7])	relative viability EC50 (U2OS [8])	drug sensitivity score (Caco-2 [9])	drug sensitivity score (Calu-3 [10])	drug sensitivity score (HepG2 [11])	drug sensitivity score (U2OS [12])	cell viability (Vero E6 [13]; 1 nM)	cell viability (Vero E6 [13]; 10 nM)	cell viability (Vero E6 [13]; 100 nM)	cell viability (Vero E6 [13]; 1000 nM)	cell viability (Vero E6 [13]; 10000 nM)	relative viability EC50 (Vero E6 [14])	drug sensitivity score (Vero E6 [15])
CC1Nc2ccc(Cl)cc2S(=O)(=O)N1 (stereo unspecified) [IDRA-21]	105%	105%	95%	104%	99%	87.5%	92.2%	102%	97.4%	101%	102%	93.8%	97.3%	98.9%	98%	99.3%	105%	99.6%	102%	98.2%	> 10 µM	> 10 µM	> 10 µM	> 10 µM	0	0	0	0							
O=c1[nH]c(=O)n([C@H]2C[C@H](O)[C@@H](CO)O2)cc1/C=C/Br [brivudine]	97%	111%	104%	109%	100%											94.4%	98.5%	94.5%	104%	98%	> 10 µM			> 10 µM	0			0							
C=C(C)[C@@H]1CC[C@]2(C(=O)O)CC[C@]3(C)[C@H](CC[C@@H]4[C@@]5(C)CC[C@H](O)C(C)(C)[C@@H]5CC[C@]43C)[C@@H]12 [betulinic-acid]	102%	108%	92.3%	112%	102%	93.1%	97.9%	93%	106%	100%	109%	97.4%	114%	101%	113%	101%	101%	98%	99%	95%	> 10 µM	> 10 µM	> 10 µM	> 10 µM	0	0	0	0							
S=C(NCCc1ccccn1)Nc1ccc(Br)cn1 [trovirdine]	94.9%	91.6%	98.4%	90%	98.1%	89.2%	96.2%	101%	102%	108%	103%	105%	102%	106%	92.1%	104%	100%	98.4%	104%	98.7%	> 10 µM	> 10 µM	> 10 µM	> 10 µM	0	0	0	0							
CCc1[nH]c(=O)[nH]c1C(=O)c1ccncc1 [piroximone]	96.4%	95.2%	88.7%	99.4%	94.6%	103%	110%	99.3%	95.2%	89.3%						93.5%	103%	94.6%	102%	94.1%	> 10 µM	> 10 µM		> 10 µM	0	0		0	99%	94.6%	96.8%	93.3%	94.6%	> 10 µM	0
NNCCc1ccccc1 [phenelzine]	88.4%	100%	93.4%	92.6%	75.1%						109%	92.8%	84.1%	120%	91.4%	98.4%	98.7%	94.6%	99.8%	95.1%	> 10 µM		> 10 µM	> 10 µM	1.4		0	0	105%	103%	101%	90.3%	98%	> 10 µM	0
CC(C)N(CCCCOCC(=O)NS(C)(=O)=O)c1cnc(-c2ccccc2)c(-c2ccccc2)n1 [selexipag]	110%	103%	94.5%	107%	105%	95%	105%	97.3%	110%	105%											> 10 µM	> 10 µM			0	0			100%	102%	93%	98.4%	93.2%	> 10 µM	0
C=C1CC/C=C(\C)CC[C@@H]2[C@@H]1CC2(C)C [g-caryophyllene]	109%	112%	97.3%	121%	80.6%						105%	95.5%	113%	104%	94.9%	92.8%	101%	95.3%	99.9%	99%	> 10 µM		> 10 µM	> 10 µM	0.2		0	0	103%	89.3%	104%	94.8%	100%	> 10 µM	0
CS(=O)(=O)N1CCN(Cc2cc3nc(-c4cccc5[nH]ncc45)nc(N4CCOCC4)c3s2)CC1 [GDC-0941]																					0.158 µM	0.438 µM		0.775 µM	11.6	11.8	9.2	6.9							6.5
